ChEMBL document CHEMBL4342450, “Antitumor Activity of Ohmyungsamycin A through the Regulation of the Skp2-p27 Axis and MCM4 in Human Colorectal Cancer Cells” (J Nat Prod, 2020)
The source made the active and inactive calls. No cut-off for these calls is given here. *1 amine or outer side, *2 acyl side, *3 side chain or, on linkers, in order; H or OH if unused. Where a SMILES comes first, the peptide text is derived from it. Bridges are numbered along the chain shown (N, C = ends). [ ]: non-standard residue; d: D form. Phe(3R-OH) = O=C([C@@H](N[*:1])[C@H](O[*:3])c1ccccc1)[*:2]; NMeTrp(4-OMe) = CN[C@@H](Cc1c[nH]c2cccc(OC)c12)C(=O)O; NMeT = CN[C@H](C(=O)O)[C@@H](C)O; NMeL = CN[C@@H](CC(C)C)C(=O)O; NMeV = CN[C@H](C(=O)O)C(C)C

What was measured:
HCT-116 [1] = experiment: Downregulation of DSCC1 gene expression in human HCT116 cells assessed as fold change at 15 uM incubated for 24 hrs by cDNA microarray analysis relative to control; format: functional
HCT-116 [2] = experiment: Downregulation of CYP24A1 gene expression in human HCT116 cells assessed as fold change at 15 uM incubated for 24 hrs by cDNA microarray analysis relative to control; format: functional
HCT-116 [3] = experiment: Downregulation of DKK1 gene expression in human HCT116 cells assessed as fold change at 15 uM incubated for 24 hrs by cDNA microarray analysis relative to control; format: functional
HCT-116 [4] = experiment: Induction of cell cycle arrest in human HCT116 cells assessed as accumulation at S phase at 10 uM incubated for 18 hrs by propidium iodide staining based flow cytometry (reference value: 26.8%); format: functional
HCT-116 [5] = experiment: Induction of cell cycle arrest in human HCT116 cells assessed as accumulation at G2/M phase at 10 uM incubated for 18 hrs by propidium iodide staining based flow cytometry (reference value: 25.1%); format: functional
HCT-116 [6] = experiment: Induction of cell cycle arrest in human HCT116 cells assessed as accumulation at G0/G1 phase at 20 uM incubated for 18 hrs by propidium iodide staining based flow cytometry (reference value: 43.3%); format: functional
HCT-116 [7] = experiment: Decrease in cell cycle associated protein expression in human HCT116 cells assessed as reduction in CDK6 expression at 5 to 20 uM after 24 hrs by Western blot analysis; format: functional, cell-based
HCT-116 [8] = experiment: Effect on Cul1 expression in human HCT116 cells at 5 to 20 uM after 24 hrs by Western blot analysis; format: functional, cell-based
HCT-116 [9] = experiment: Modulation of Skp2-p27 Axis in human HCT116 cells assessed as upregulation of p21 expression after 24 hrs by Western blot analysis; format: functional, cell-based
HCT-116 [10] = experiment: Induction of apoptosis in human HCT116 cells assessed as reduction in uncleaved full length caspase 7 level after 24 hrs by Western blot analysis; format: functional, cell-based
HCT-116 [11] = experiment: Induction of apoptosis in human HCT116 cells assessed as reduction in Bid level at 5 to 20 uM after 24 hrs by Western blot analysis; format: functional, cell-based
Mus musculus [12] = experiment: In vivo modulation of Skp2-p27 axis in tumor of BALB/c nude mouse xenografted with human HCT116 cells assessed as downregulation of Skp2 mRNA level at 5 to 10 m/kg, ip administered thrice a week for 3.5 weeks by RT-PCR method; format: functional, organism-based
Mus musculus [13] = experiment: In vivo modulation of Skp2-p27 axis in tumor of BALB/c mouse xenografted with human HCT116 cells assessed as upregulation of p27 mRNA level at 5 to 10 m/kg, ip administered thrice a week for 3.5 weeks by RT-PCR method; format: functional, organism-based

## CN[C@H](C(=O)N[C@H](C(=O)N[C@@H]1C(=O)N(C)[C@@H]([C@@H](C)O)C(=O)N[C@@H](C(C)C)C(=O)N(C)[C@@H](CC(C)C)C(=O)N[C@@H](C(C)C)C(=O)N(C)[C@@H](C(C)C)C(=O)N(C)[C@@H](Cc2c[nH]c3cccc(OC)c23)C(=O)N[C@@H](C(C)C)C(=O)N[C@@H]([C@H](O)c2ccccc2)C(=O)N[C@@H](C(C)C)C(=O)O[C@@H]1C)C(C)C)C(C)C (H-[NMeV]VT[NMeT]V[NMeL]V[NMeV][NMeTrp(4-OMe)]V[Phe(3R-OH)]V; ester 3-C)
HCT-116 [1]
  fold change (FC): 4.856
HCT-116 [2]
  fold change (FC): 18.5
HCT-116 [3]
  fold change (FC): 4.144
HCT-116 [4]
  Activity: 26.6%
HCT-116 [5]
  Activity: 15.4%
HCT-116 [6]
  Activity: 55.4%
HCT-116 [7]
  inhibition: Active
HCT-116 [8]
  Activity: inactive
HCT-116 [9]
  Activity: Dose-dependent effect
HCT-116 [10]
  Activity: Dose-dependent effect
HCT-116 [11]
  Activity: Active
Mus musculus [12]
  inhibition: Active
Mus musculus [13]
  Activity: Active
